Experimental data published in patent publication US11213508B2, “Compositions comprising urolithins and uses thereof for the stimulation of insulin secretion” (Centre National de la Recherche Scientifique (CNRS), priority 2013, dated 2022).
Entries after “also recorded” stand apart in the source; their conditions may differ.

Assays:
[1] = system: rat isolated perfused pancreas; experiment: Insulin secretion in the rat isolated perfused pancreas; settings: for AUC of insulin produced above the basal level: urolithins 10 μM
Method: Pancreas was isolated from male Wistar rats of 250-300 g body weight under pentobarbital anaesthesia (60 mg/kg i.p.). Previously described technique (Cadene et al., 1996) was used to isolate the pancreas from neighboring tissues. The organ was then transferred into a plastic chamber maintained at 37.5° C. Perfusion medium was Krebs-Ringer bicarbonate buffer containing 2 g/l bovine serum albumin and 5 mmol·L^−1 (non stimulant condition) or 8.3 mmol·L^−1 (stimulant condition) glucose, and continuously bubbled with a mixture of 95% O2/5% CO2. Infusion pressure was selected to provide a pancreatic outflow of 2.5 ml/min. The first sample was taken 30 min after initiation of perfusion to allow for an adaptation period. Two additional control samples were collected 10 and 15 min later, immediately followed by switching to the same buffer containing urolithins (10 μmol·L^−1). Pancreatic effluents were then collected at the following times (minutes): 17, 18, 19, 20, 21, 27, 32, 42. Pancreas was then washed using the same buffer in the absence of urolithin. Two additional samples were taken 5 and 15 min after urolithin withdrawal.
All samples were collected for 1 min allowing determinations of pancreatic effluent output, and immediately frozen for insulin assay (Cisbio HTRF method). Insulin output rate (ng/min) was calculated by multiplying the hormone concentration (ng/ml) in the effluent by the corresponding flow rate (ml/min).
Amplitude of stimulation of insulin secretion by urolithins was estimated by calculating the Area Under the Curve (AUC) of insulin produced above the basal level (trapezoidal rule). Before administration of urolithins, insulin secretion levels were 3.39±0.58 ng/min (n=14 pancreases) and 67.5±7.80 ng/min (n=15 pancreases), for 5 mmol·L^−1 and 8.3 mmol·L^−1 glucose, respectively.

[2] = system: INS-1 insulin-secreting β-cells; experiment: Glucose (8.3 mmol·L^−1)-stimulated insulin secretion in INS-1 cells (HTRF insulin assay); assay type: cell-based; settings: for ability to amplify glucose-stimulated insulin secretion: blind screening, 2 and 20 μM; for % control response (glucose-stimulated insulin secretion): control = glucose alone; for degree of stimulation of insulin secretion: summary over the different insulin secretion conditions in INS-1 cells, 20 μmol·L^−1
Method: Cells were seeded in 24-well plates (4×10^5 cells per well) and were used for experiments after 5 days of culture.
(§1) Cells were incubated for 1 h (5% CO2, 37° C.) in KRB medium containing 8.3 mmol·L^−1 glucose (glucose-stimulated secretion) in the presence or absence of the compounds tested. At the end of the 1 h incubation period, the medium was sampled and stored at −20° C. until the insulin assay. Insulin concentration in cell supernatants was determined using the homogeneous time resolved fluorescence technology (HTRF), according to the manufacturer's instructions (HTRF insulin assay kit, Cisbio International, Bagnols-sur-Ceze, France). Briefly, two anti-insulin antibodies were used; one labelled with Eu^3+-Cryptate and one labelled with XL665 recognizing distinct epitopes. When these two fluorophores bind to insulin molecules, the two antibodies come into close proximity, allowing fluorescence resonance energy transfer (FRET) to occur between the Eu^3+-Cryptate and the XL665. This FRET increases proportionally with the insulin concentrations. All the experiments were performed at least in quadruplicate.
(§2) For the determination of insulin secretion, cells were incubated for 1 h (5% CO2, 37° C.) in KRB medium containing either 1.4 mmol·L^−1 glucose (low-glucose) or 8.3 mmol·L^−1 glucose (glucose-stimulated secretion) in the presence or absence of the compounds tested. At the end of the 1 h incubation period, mediums were sampled and stored at −20° C. until the insulin assay.

[3] = system: INS-1 insulin-secreting β-cells; experiment: Insulin secretion in INS-1 cells in the presence of oxidative stress (H2O2); assay type: cell-based; settings: 8.3 mmol·L^−1 glucose + H2O2; for concentration active in preventing insulin secretion impairment induced by H2O2: lowest active concentration
Method: as §1, with “Before the treatment, RPMI medium was removed and the cells were washed twice with HEPES-balanced Krebs-Ringer bicarbonate buffer (KRB) containing (in mmol·L^−1): 123 NaCl, 5.4 KCl, 1.3 KH2PO4, 2.7 MgSO4, 2.9 CaCl2, 5 NaHCO3 and 20 HEPES, pH 7.5, with 2 g·L^−1 bovine serum albumin (KRB/BSA). Cells” for “Cells”
For protection experiments, INS-1 cells were pre-incubated with the indicated concentrations of urolithins for one hour (5% CO2, 37° C.) in RPMI medium. After two washes in HEPES-balanced Krebs-Ringer bicarbonate buffer (123 mmol·L^−1 NaCl, 5.4 mmol·L^−1 KCl, 1.3 mmol·L^−1 KH2PO4, 2.7 mmol·L^−1 MgSO4, 2.9 mmol·L^−1 CaCl2, 5 mmol·L^−1 NaHCO3 and 20 mmol·L^−1 HEPES, pH 7.5) containing 2 g·L^−1 bovine serum albumin (KRB/BSA), INS-1 cells were incubated for one hour (5% CO2, 37° C.) in KRB/BSA containing urolithins at the indicated concentrations in the presence of 1.4 mmol·L^−1 glucose (basal condition) or 8.3 mmol·L^−1 glucose (stimulant condition). When used, H2O2 (50 gmol·L^−1) was added at the beginning of the one-hour incubation period. Control experiments were performed in the basal condition, in the absence of urolithins during the pre-incubation and incubation periods.
Insulin secretion was determined as described above by measuring insulin accumulation after a one-hour incubation period.

[4] = system: INS-1 insulin-secreting β-cells; experiment: Insulin secretion in INS-1 cells under low-glucose (1.4 mmol·L^−1) condition; assay type: cell-based; settings: 1.4 mmol·L^−1 glucose; maximal concentration tested 20
Method: The insulin-secreting cell line INS-1 (a gift from Professor C. B. Wollheim) was cultured in RPMI-1640, supplemented with 10% fetal calf serum (FCS), 100 U·mL^−1 penicillin, 100 μg·mL^−1 streptomycin, 2 mmol·L^−1 L-glutamine, 10 mmol·L^−1 HEPES, 1 mmol·L^−1 sodium pyruvate, and […] 2-mercaptoethanol, as previously described by Youl et al. (2010). Cells were seeded in 24-well plates (4×10^5 cells per well) and were used for experiments after 5 days of culture.
as §1, with “Before the treatment, RPMI medium was removed and the cells were washed twice with HEPES-balanced Krebs-Ringer bicarbonate buffer (KRB) containing (in mmol·L^−1): 123 NaCl, 5.4 KCl, 1.3 KH2PO4, 2.7 MgSO4, 2.9 CaCl2, 5 NaHCO3 and 20 HEPES, pH 7.5, with 2 g·L^−1 bovine serum albumin (KRB/BSA). Cells” for “Cells”
as §2, with “Material and methods were the same as described in example 1. For” for “For”, “assay. Insulin concentration in cell supernatants was determined as described in Example 1.” for “assay.”

[5] = compound 2 μM, 8.3 mmol·L^−1 glucose
[6] = compound 20 μM, 8.3 mmol·L^−1 glucose

| Compound | AUC of insulin produced above the basal level [1] | ability to amplify glucose-stimulated insulin secretion ([2]; 8.3 mmol·L^−1 glucose) | % control response (glucose-stimulated insulin secretion) [2, 5] [%] | % control response (glucose-stimulated insulin secretion) [2, 6] [%] | degree of stimulation of insulin secretion [2] | concentration active in preventing insulin secretion impairment induced by H2O2 [3] [µM] | stimulation of insulin secretion in low-glucose condition [4] | active concentration ([2]; glucose-stimulated secretion condition, active at this concentration only) [µM] | insulin secretion stimulation as compared to control conditions ([3]; 20 μmol·L^−1) [%] | insulin secretion stimulation as compared to control conditions [3] [%] | effect on insulin secretion under non-stimulating glucose condition ([1]; 10 μmol·L^−1, 5 mmol·L^−1 glucose) | effect on insulin secretion under stimulating glucose condition ([1]; 10 μmol·L^−1, 8.3 mmol·L^−1 glucose) | lowest concentration inducing some stimulation of insulin secretion ([1]; stimulating glucose condition) [µM] | stimulation of insulin secretion at the maximal concentration tested ([2]; 8.3 mmol·L^−1 glucose, control 100% = glucose alone) |
| --- | --- | --- | --- | --- | --- | --- | --- | --- | --- | --- | --- | --- | --- | --- |
| O=c1oc2cc(O)ccc2c2ccc(O)cc12 [Urolithin A, urolithin A] | 2609.5 ng insulin secreted for 32 min | able to amplify | 109.82 | 162.50 | about 160% | 20 | did not significantly stimulate insulin secretion; also recorded: does not stimulate insulin secretion | – | – | – | – | – | – | – |
| O=c1oc2cc(O)ccc2c2ccccc12 [Urolithin B, urolithin B] | 142.0 ng insulin secreted for 32 min | able to amplify | 108.77 | 145.61 | 140% | 5 | induced some stimulation | 20 | 200 | 150 | – | – | – | – |
| O=c1oc2cc(O)ccc2c2cc(O)c(O)cc12 [Urolithin C, urolithin C] | 9160.0 ng insulin secreted for 32 min | able to amplify | 107.14 | 194.64 | 185-200% | 5 | induced some stimulation | – | 200 | – | had no effect | induced a major amplification | 1 | about 200% |
| O=c1oc2c(O)c(O)ccc2c2cc(O)c(O)cc12 [Urolithin D, urolithin D] | 387.5 ng insulin secreted for 32 min | able to amplify | 88.79 | 158.62 | 135-155% | 5 | induced some stimulation | – | – | – | – | – | – | – |
